Data taken from patent US20250195482A1, “METHOD AND COMPOSITION FOR IMPROVING HEALTH OF HAIR FOLLICLES, SCALP OR HAIR OF MAMMALS” (NANJING NUTRABUILDING BIO-TECH CO., LTD., priority 2022, published 2025).

Experiments:
Type in all cases: cell-based
Propionibacterium acnes = experiment: Growth inhibition of Propionibacterium acnes (optical density); conditions: 1000 μM DHB, 530 nm, 48 h shaking at 30° C.; control 2.6
Description: (§1) Growth inhibition of M. globosa, M. restricta, Propionibacterium acnes, Staphylococcus aureus and Staphylococcus epidermidis was tested using 50-ml tubes with 10 ml of mDixon medium. Cultures were inoculated to an optical density (OD) of 0.2, the above microorganisms were loaded into each culture dish, and challenged with test material (control and DHB with different concentrations: 0.001 μM, 0.01 μM, 0.1 μM, 1 μm, 10 μM, 100 μM and 1000 μM). After 48 h of shaking at 30° C., the OD was measured by spectrophotometer and recorded.

[1] = test system: Staphylococcus epidermidis; experiment: Growth inhibition of Staphylococcus epidermidis (optical density); conditions: 1000 μM DHB, 530 nm, 48 h shaking at 30° C.; control 1.8
Description: as §1

M. restricta = experiment: Growth inhibition of M. restricta (optical density); conditions: 1000 μM DHB, 600 nm, 48 h shaking at 30° C., mDixon medium; control 6.5
Description: as §1

M. globosa = experiment: Growth inhibition of M. globosa (optical density); conditions: 1000 μM DHB, 600 nm, 48 h shaking at 30° C., mDixon medium; control 4.1
Description: as §1

Staphylococcus aureus = experiment: Growth inhibition of Staphylococcus aureus (optical density); conditions: 1000 μM DHB, 530 nm, 48 h shaking at 30° C.; control 2.1
Description: as §1

Q: Which results are given for `COc1ccc2c(c1OC)CN1CCc3cc4c(cc3C1=C2)OCO4` [DHB, Dihydroberberine]?
A: optical density of Propionibacterium acnes (Propionibacterium acnes): 0.9; optical density of Staphylococcus epidermidis [1]: 0.3; optical density of M. restricta (M. restricta): 1.1; optical density of M. globosa (M. globosa): 0.2; optical density of Staphylococcus aureus (Staphylococcus aureus): 0.3
